{"source": "patent US4383993A", "about": "“Nasal dosage forms containing natural female sex hormones” (priority 1981, dated 1983)", "key": {"[1]": {"experiment": "bioavailability of progesterone in rats after intravenous, nasal and intraduodenal/oral administration", "format": "in vivo, Sprague-Dawley male rats", "method": "(§1) Sprague-Dawley male rats, each weighing about 270 grams, were used in the progesterone study. For nasal administration, the rats were anesthetized using sodium pentobarbital (50 mg/kg) and the drug was administered to the nasal cavity by means of a micropipet at dosage levels of 50 μg, 100 μg and 150 μg/rat of [4-^14 C]-progesterone (~8.5 μCi/rat) in 0.1 ml of isotonic saline containing 1-2% Tween 80 as a solubilizing agent, according to the procedure described by Hirai et al, the 98th Annual Meeting of Pharmaceutical Society of Japan, Okayama, April 1978, except that the end of the tube leading from the esophagus to the nasal cavity was closed and the drug was administered to the nostrils which were then closed with an adhesive agent. For oral (intraduodenal) administration, the rats were anesthetized and the abdomen of each rat was opened through a midline incision and a 50 μg/rat dose of the drug ([4-^14 C]-progesterone in 0.1 ml isotonic saline with 1-2% Tween 80) was injected directly through the duodenum. For intravenous administration, the rats were anesthetized and the drug was injected through the femoral vein at dosage levels of 50 μg, 100 μg and 150 μg/rat of [4-^14 C]-progesterone in 0.1 ml of isotonic saline containing 1-2% Tween 80. Blood was sampled periodically from the […] after IV and nasal administration, and from the tail vein after ID administration. Blood levels of progesterone were determined by thin layer chromotography."}, "[2]": {"conditions": "by mouth; rapid metabolism in intestinal epithelium and liver; cited from earlier work"}, "[3]": {"experiment": "bioavailability of 17 β-estradiol in rats via intravenous, nasal and intraduodenal/oral routes (TUE, E2, E1 in blood)", "format": "in vivo, Sprague-Dawley male rats", "method": "as §1\nSprague-Dawley male rats, each weighing approximately 270 grams, were given dosages of 5 μg, 10 μg and 20 μg/rat of [6,7-^3 H] […] Blood samples were taken periodically as described in the progesterone study and assayed for estradiol (E2), estrone (E1) and total unconjugated estrogens (TUE)."}}, "note": "“Also recorded” adds a separate entry of the source."}
{"smiles": "CC(=O)[C@H]1CC[C@H]2[C@@H]3CCC4=CC(=O)CC[C@]4(C)[C@H]3CC[C@]12C", "note": "[progesterone, pregn-4-ene-3,20-dione]", "values": [{"measurement": "nasal bioavailability vs oral bioavailability", "setting": "[1]; 50 μg dosage level", "result": 85.75, "unit": "times"}, {"measurement": "area under the curve as a function of dose", "setting": "[1]; IV and nasal routes, 50, 100, 150 μg, FIG. 2", "result": "directly proportional to the dose administered"}, {"measurement": "area under the curve, intravenous vs nasal (two tailed t-test)", "setting": "[1]; at each dose", "result": "not significantly different, even at the 0.001 level"}, {"measurement": "absorption from the nasal mucosa", "setting": "[1]; nasal", "result": "very rapidly absorbed from the nasal mucosa; also recorded: rapidly absorbed from the nasal mucosa into the systemic circulation without first pass metabolism; also recorded: rapidly absorbed from the nasal mucosa into systemic blood without extensive intestinal or first pass metabolism"}, {"measurement": "nasal bioavailability vs intravenous bioavailability", "setting": "[1]; nasal vs intravenous", "result": "equivalent"}, {"measurement": "nasal bioavailability vs oral bioavailability (in words)", "setting": "[1]; nasal vs oral", "result": "vastly superior"}, {"measurement": "Tmax", "setting": "[1]; rat, in vivo", "result": "< 7", "unit": "min"}, {"measurement": "bioavailability", "setting": "[1]; rat, in vivo, iv, AUC ratio Nasal/IV", "result": 103, "unit": "%"}, {"measurement": "bioavailability", "setting": "[1]; rat, in vivo, oral bioavailability relative to equivalent IV dose", "result": 1.2, "unit": "%"}, {"measurement": "oral effectiveness", "setting": "[2]", "result": "not effective by mouth"}]}
{"smiles": "C[C@]12CC[C@@H]3c4ccc(O)cc4CC[C@H]3[C@@H]1CC[C@@H]2O", "note": "[17 β-estradiol, estra-1,3,5(10)-triene-3,17 β-diol]", "values": [{"measurement": "absorption by the nasal mucosa", "setting": "[3]; nasal", "result": "rapidly absorbed by the nasal mucosa; also recorded: rapidly absorbed from the nasal mucosa into systemic blood without extensive intestinal or first pass metabolism"}, {"measurement": "nasal vs oral bioavailability of E2", "setting": "[3]; rat, in vivo", "result": "13.23-21.74 times"}, {"measurement": "nasal vs oral bioavailability of TUE", "setting": "[3]; rat, in vivo", "result": "2.26-2.83 times"}, {"measurement": "bioavailability", "setting": "[3]; rat, in vivo, E2 bioavailability relative to corresponding IV doses", "result": "50.5 to 83.9", "unit": "%"}, {"measurement": "bioavailability", "setting": "[3]; rat, in vivo, po, E2 AUC ratio vs. IV", "result": 3.8, "unit": "%"}, {"measurement": "bioavailability", "setting": "[3]; rat, in vivo, po, E2 bioavailability relative to corresponding IV doses", "result": "3.1 to 5", "unit": "%"}]}
